ChEMBL document CHEMBL1201862, “PubChem BioAssay data set” (2004)
Activity calls are given as the source filed them.

Columns and labels:
Cytochrome P450 2C19 = Cytochrome P450 2C19 (Homo sapiens, UniProt P33261); assay: Cytochrome panel assay with activity outcomes. Panel member name: p450-cyp2c19 Compounds with AC50 equal or less than 10 uM are considered active; format: functional; settings: read-out: AC50
Cytochrome P450 2D6 = Cytochrome P450 2D6 (Homo sapiens, UniProt P10635);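 further: CYP2D6 member of a cytochrome P450 panel assay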
Chain of Cytochrome P450 2D6 (P10635 whole entry): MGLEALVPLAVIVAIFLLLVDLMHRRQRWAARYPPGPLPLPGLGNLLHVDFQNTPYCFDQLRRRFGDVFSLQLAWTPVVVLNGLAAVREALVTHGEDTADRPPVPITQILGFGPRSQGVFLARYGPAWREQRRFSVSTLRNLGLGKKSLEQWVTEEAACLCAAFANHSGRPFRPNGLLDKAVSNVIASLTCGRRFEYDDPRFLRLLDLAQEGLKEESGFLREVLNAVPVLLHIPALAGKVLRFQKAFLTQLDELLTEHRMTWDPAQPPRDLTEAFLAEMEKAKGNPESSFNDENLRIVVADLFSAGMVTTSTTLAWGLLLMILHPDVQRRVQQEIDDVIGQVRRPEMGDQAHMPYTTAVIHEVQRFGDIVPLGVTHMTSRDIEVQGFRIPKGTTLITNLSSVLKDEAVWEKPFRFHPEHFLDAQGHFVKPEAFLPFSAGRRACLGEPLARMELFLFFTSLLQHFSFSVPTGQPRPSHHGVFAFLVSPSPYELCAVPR

Cytochrome P450 3A4 = Cytochrome P450 3A4 (Homo sapiens, UniProt P08684);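 further: CYP3A4 tested as one member of a cytochrome P450 panel screen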
Chain of Cytochrome P450 3A4 (P08684 whole entry): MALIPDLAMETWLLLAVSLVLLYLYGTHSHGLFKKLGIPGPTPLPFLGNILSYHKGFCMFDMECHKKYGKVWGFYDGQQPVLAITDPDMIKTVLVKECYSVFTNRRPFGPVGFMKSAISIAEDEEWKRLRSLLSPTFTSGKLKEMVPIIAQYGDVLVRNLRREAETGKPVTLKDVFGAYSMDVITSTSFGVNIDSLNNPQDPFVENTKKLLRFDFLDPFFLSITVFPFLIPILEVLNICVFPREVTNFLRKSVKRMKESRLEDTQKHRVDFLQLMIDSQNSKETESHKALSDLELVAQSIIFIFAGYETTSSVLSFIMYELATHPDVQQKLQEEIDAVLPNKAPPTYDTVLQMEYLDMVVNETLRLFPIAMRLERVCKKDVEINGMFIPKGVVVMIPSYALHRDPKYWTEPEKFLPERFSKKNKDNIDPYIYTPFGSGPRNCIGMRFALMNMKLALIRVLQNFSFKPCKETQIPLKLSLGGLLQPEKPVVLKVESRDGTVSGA

[1] = Trypanosoma cruzi growth suppression in host cells – NIH3T3 host cells, beta-gal luminescence, confirmation (AID 2044); format: functional, cell-based;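 further: intracellular parasites grown in NIH/3T3 mouse fibroblasts as host cells; luminescent beta-galactosidase reporter signal from transgenic T. cruzi replicating inside host cells; inhibitors lower the luminescence signal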
[2] = NIH3T3 cell viability loss – ATP luminescence, mouse fibroblasts, counter-screen, dose response (AID 2010); format: functional, cell-based;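 further: cells exposed to compound for about 90 hours before reading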
Streptococcus = assay: GAS UMAA2166 growth inhibition – luminescence, BacTiterGlo, counter-screen for streptokinase expression inhibitor project, dose response (AID 1915); format: functional, organism-based;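 further: potency for reduction of bacterial viability or growth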
[3] = test system: Streptococcus sp. 'group A'; assay: Streptococcus pyogenes SK(-)GAS viability under kanamycin – luminescence, BacTiterGlo, confirmation, counter-screen for streptokinase expression inhibitor project, dose response (AID 1900); format: functional, organism-based
Streptokinase A = molecular target: T1, Streptokinase A (Streptococcus pyogenes serotype M1, UniProt P10520); assay: viability-normalized secreted streptokinase activity reduction – plasminogen activation absorbance, OD405, dose response (AID 1914); format: functional, Streptococcus pyogenes M1 GAS;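 further: secreted streptokinase activity via plasminogen activation per viability signal from cell pellet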
T1 sequence (P10520 whole entry): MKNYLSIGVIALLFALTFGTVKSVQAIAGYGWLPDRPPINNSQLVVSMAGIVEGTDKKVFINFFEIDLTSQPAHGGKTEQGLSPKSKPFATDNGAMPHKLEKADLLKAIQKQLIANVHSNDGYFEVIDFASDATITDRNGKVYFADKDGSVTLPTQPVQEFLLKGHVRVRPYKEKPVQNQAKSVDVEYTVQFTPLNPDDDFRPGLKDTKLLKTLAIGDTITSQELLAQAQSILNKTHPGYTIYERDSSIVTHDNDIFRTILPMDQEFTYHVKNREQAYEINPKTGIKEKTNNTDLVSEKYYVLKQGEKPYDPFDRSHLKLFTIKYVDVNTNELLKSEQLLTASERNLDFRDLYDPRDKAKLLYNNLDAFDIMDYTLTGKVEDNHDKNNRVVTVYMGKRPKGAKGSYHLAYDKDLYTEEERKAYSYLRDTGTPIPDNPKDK

[4] = viability of uninfected HEp-2 cells – cell-based, HTS, cytotoxicity control for RSV inhibitor project, dose response (AID 2410); format: functional; settings: human respiratory syncytial virus

Chain of Cytochrome P450 2C19 (P33261 whole entry): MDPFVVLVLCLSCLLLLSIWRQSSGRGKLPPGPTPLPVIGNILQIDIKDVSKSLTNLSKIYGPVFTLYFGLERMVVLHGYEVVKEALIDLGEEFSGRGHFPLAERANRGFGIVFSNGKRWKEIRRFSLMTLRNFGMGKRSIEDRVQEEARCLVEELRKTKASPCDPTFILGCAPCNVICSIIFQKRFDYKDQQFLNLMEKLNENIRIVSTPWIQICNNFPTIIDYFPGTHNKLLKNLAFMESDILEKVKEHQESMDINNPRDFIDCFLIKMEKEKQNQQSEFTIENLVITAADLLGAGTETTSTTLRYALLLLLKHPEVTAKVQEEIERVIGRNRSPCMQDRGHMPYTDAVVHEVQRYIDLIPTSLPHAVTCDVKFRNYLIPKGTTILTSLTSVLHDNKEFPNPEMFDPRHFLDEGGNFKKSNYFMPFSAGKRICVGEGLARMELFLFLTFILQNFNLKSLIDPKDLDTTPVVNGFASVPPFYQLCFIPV

For `COc1ccc(C2N=C(N)N=C(N)N2c2ccccc2OC)cc1OC` (stereo not drawn), the AC50 (Cytochrome P450 2C19) was 39.8 µM (inconclusive).

With `CC[C@]1(c2cccc(O)c2)CCCCN(C)C1` the AC50 (Cytochrome P450 2D6) was 10 µM (inconclusive).

In the case of `COc1ccc(CNc2cc(-c3ccccc3Cl)ncn2)c(OC)c1`, the AC50 (Cytochrome P450 2D6) is reported as 39.8 µM (inconclusive).

For `CN(C)c1ccc(/C=N\NC(=O)c2cnc3ccccc3c2)cc1`, the AC50 (Cytochrome P450 3A4) was 3.98 µM (inconclusive).

In the case of `Cc1nn(Cc2c(F)c(F)c(F)c(F)c2F)c(C)c1NC(=O)c1ccc(COc2ccc(Cl)cc2Cl)o1`, the EC50 [1] is reported as 1.11 µM (active) and the EC50 [2] is reported as > 60 µM (not active).

For `O=c1cnc2cnc(N3CCNCC3)nc2n1Cc1cccs1`, the AC50 (Cytochrome P450 2D6) was 20 µM (inconclusive) and the AC50 (Cytochrome P450 3A4) was 15.8 µM (inconclusive).

In the case of `CC(CC(=O)Nc1nc2ccccc2[nH]1)c1ccccc1` (stereo not drawn), the EC50 (Streptococcus) is reported as > 150 µM (not active), the EC50 [3] is reported as > 150 µM (not active) and the EC50 (Streptokinase A) is reported as > 150 µM (not active).

In the case of `Cc1ccccc1S(=O)(=O)c1c(C)cc(-c2ccccc2)nc1O`, the AC50 (Cytochrome P450 3A4) is reported as 28.2 µM (inconclusive).

With `CN(C)Cc1ccccc1-c1nccc(Nc2ccc(F)cc2)n1` the AC50 (Cytochrome P450 3A4) was 15.8 µM (inconclusive).

In the case of `CCSc1nnc(NC(=O)c2nc(-c3ccccc3)n(-c3ccccc3)n2)s1`, the EC50 (Streptococcus) is reported as 16.5 µM (active), the EC50 [3] is reported as 7.28 µM (active) and the EC50 (Streptokinase A) is reported as 20.2 µM (active).

In the case of `c1ccc2sc(SCSc3nc4ccccc4s3)nc2c1`, the EC50 (Streptococcus) is reported as > 150 µM (not active), the CC50 [4] is reported as 29.5 µM (active) and the EC50 [3] is reported as > 150 µM (not active). The AC50 (Cytochrome P450 2D6) was 2.51 µM (inconclusive) and the EC50 (Streptokinase A) was > 150 µM (not active).

For `CCC(=O)N(CCC(Cc1ccccc1)c1ccc2c(c1)OCO2)Cc1ccccc1F` (stereo not drawn), the EC50 (Streptococcus) was 40.3 µM (active), the EC50 [3] was 12.2 µM (active) and the EC50 (Streptokinase A) was 10.7 µM (active).

For `Brc1ccc(-c2noc(CCc3ccccc3)n2)cc1`, the CC50 [4] was 47.7 µM (active).

In the case of `COc1ccc(/C=C2\SC(=O)N(CCNC(=O)C3CC(=O)N(c4ccccc4)C3)C2=O)cc1` (stereo not drawn), the AC50 (Cytochrome P450 2D6) is reported as 20 µM (inconclusive).

In the case of `CCCN1CCN(CCCNC(=O)Cn2nc(-c3ccc(C)cc3)ccc2=O)CC1`, the AC50 (Cytochrome P450 2D6) is reported as 20 µM (inconclusive).

For `O=C(COc1cccnc1[N+](=O)[O-])N1N=C(c2ccc(Cl)cc2)CC1c1ccco1` (stereo not drawn), the EC50 [1] was 2.8 µM (active) and the EC50 [2] was > 60 µM (not active).

In the case of `CC(C)=CCC/C(C)=C/CO/N=C1/C[C@@H](O)[C@@H](O)[C@@H]2[C@H]3C(=O)N(c4ccc(F)cc4F)C(=O)[C@@H]3CC[C@H]12`, the AC50 (Cytochrome P450 3A4) is reported as 3.98 µM (inconclusive).

In the case of `Cc1ccc(Sc2cc(C(=O)NCCCN(C)C)c3ccccc3n2)cc1`, the EC50 [1] is reported as 0.133 µM (active) and the EC50 [2] is reported as 14.6 µM (active).

With `N#C/C(=C\c1ccc(OCC(N)=O)cc1)c1ccccc1` the CC50 [4] was 36.8 µM (active).

For `COc1ccc(N2CCN(CC(=O)Nc3nc4c(s3)CC(C)CC4)CC2)cc1` (stereo not drawn), the EC50 (Streptococcus) was > 150 µM (not active), the EC50 [3] was 23.8 µM (active) and the EC50 (Streptokinase A) was > 150 µM (not active).

For `O=C(COn1nnc2ccc(C(F)(F)F)cc21)Nc1nnc(-c2ccccc2)o1`, the EC50 (Streptococcus) was 3.65 µM (active) and the EC50 [3] was 2.77 µM (active).

In the case of `Cc1cccc(-n2nc([N+](=O)[O-])c(NCc3cccnc3)[n+]2[O-])c1`, the AC50 (Cytochrome P450 2D6) is reported as 12.6 µM (inconclusive), the EC50 [1] is reported as 0.582 µM (active) and the EC50 [2] is reported as > 60 µM (not active).

With `O=c1c(-c2ccc(F)cc2)nc2cncnc2n1-c1ccccc1` the AC50 (Cytochrome P450 2D6) was 20 µM (inconclusive) and the AC50 (Cytochrome P450 3A4) was 12.6 µM (inconclusive).

For `CC1Cc2cc(S(=O)(=O)N3CCCCC3C)ccc2N1C(=O)C1CCC1` (stereo not drawn), the CC50 [4] was 20.8 µM (active).

With `CCCNC(=O)OC[C@@H]1O[C@H](c2ccccc2)C=C[C@@H]1Oc1ccc(OC)cc1` the AC50 (Cytochrome P450 2D6) was 3.16 µM (inconclusive).

In the case of `S=C(Nc1ccccc1)Nc1ccccc1C#Cc1ccccc1`, the AC50 (Cytochrome P450 2D6) is reported as 15.8 µM (inconclusive) and the AC50 (Cytochrome P450 3A4) is reported as 7.94 µM (inconclusive).

In the case of `O=c1c(CCc2ccccc2)nc2cnc(N3CCNCC3)nc2n1C1CC1`, the AC50 (Cytochrome P450 2D6) is reported as 39.8 µM (inconclusive) and the AC50 (Cytochrome P450 3A4) is reported as 12.6 µM (inconclusive).

With `COc1cccc(-c2nccc(NCc3cccnc3)n2)c1` the AC50 (Cytochrome P450 2D6) was 25.1 µM (inconclusive).

For `COC(=O)[C@@]1(Cc2ccc(OC)cc2)[C@H]2c3cc(C(=O)N4CCCC4)n(CCc4ccc(O)c(O)c4)c3C[C@H]2CN1C(=O)c1ccccc1`, the AC50 (Cytochrome P450 2D6) was 39.8 µM (inconclusive).

In the case of `Oc1ccc(C[C@H]2CN=C(S)N2CCc2cc(C(F)(F)F)cc(C(F)(F)F)c2)cc1`, the CC50 [4] is reported as 28.9 µM (active).

In the case of `O=C(Nc1ccccc1)N1CCCC2(CCN(C(=O)c3cccc(F)c3)CC2)C1`, the AC50 (Cytochrome P450 2C19) is reported as 10 µM (inconclusive).
